Reference: patent publication US8486936B2, “Antagonist of smoothened” (AllaChem, LLC, priority 2009, dated 2013)

Test system: Hh-signalling cascade
Assay: Inhibition of SHh-stimulated alkaline phosphatase in C3H10T1/2 cells (Hh-signalling cascade IC50)
Format: cell-based
Details: Mus musculus, C3H 10T1/2, 384-well plates, triplicates, SHh protein stimulation, read-out: Activity (IC50, half maximal inhibition of stimulation of cell alkaline phosphatase by SHh)
Protocol: Version 1—manual setup, 96-well plates, dose-response, C3H/10T1/2 cells. Aim: to determine activity of Sonic Hedgehog pathway inhibitors.
• C3H/10T1/2 cells, grown in DMEM medium/10% FBS to 60-80% confluent • Assay Plates: 96-well half-area tissue culture plates Corning cat. #3697 • Tested compounds as 10 mM DMSO solutions in 96-tube racks • Recombinant Human Sonic Hedgehog (C2411) protein, RDS product #1845-SH, reconstituted at 200 μg/ml in PBS. • Lysis Buffer: 10 mM Ethanolamine Buffer (pH 8.0), 0.2% Triton-X100, supplemented 1:100 with Protease Inhibitor Cocktail (EMD Bioscience product #539134). • CSPD Alkaline Phosphatase Substrate with Emerald-II (Applied Biosystems product #T2212). • Prepare 1 Assay plate for every 4 compounds (see FIG. 1): • 1. Harvest C3H/10T1/2 cells with TrypLE Express solution according to a regular cell subculture protocol • 2. Count the cells and calculate dilution necessary to obtain cell suspension at 5×10^3 cells per 40 μl ([…]) • 3. Dilute cells with DMEM/10% FBS and distribute at 40 μl/well • 4. Place the plate(s) into the incubator and allow cells to attach for 3-5 hours • Prepare dilution plate: • 1. Designate 1 column for each compound • 2. Add 99 μl of DMEM/10% FBS to the wells in row A and 50 μl to the wells in rows B-H • 3. Add 1 μl of compound DMSO stocks to the wells in row A, mix, change the tip. • 4. Transfer […] of compound solutions in row A to the wells in row B, mix, change the tip • 5. […] Row G is a “no compound” positive control; row H is a “no Hedgehog” negative control • Add 5 μl/well of 10× compound dilutions from dilution plate to the corresponding wells in assay plates (see assay plate layout). Use 125 μl automatic repeating pipettor. • Place plates into incubator for 20-30 min. • Prepare 3 μg/ml 10× solution of Sonic Hedgehog (C24II) protein (Hh) in DMEM/10% FBS: • 1. Calculate total volume needed as 500 μl per full plate or 125 μl per each compound tested • 2. Add 1.5 μl of Hh stock solution (200 μg/ml in PBS) per each 98.5 μl of medium • Add 5 μl/well of 10× Hh solution to the wells in rows A-G, add 5 μl/well of medium to the wells in row H (see assay plate layout). Use 125 μl automatic repeating pipettor. • Place plates into incubator for 3 days. • Wash cells on plate: aspirate medium, add 100 μl/well of PBS or HBSS and aspirate again. • Add 20 μl/well of lysis buffer and incubate for 15 min. at room temperature on a shaker platform. • Transfer 7.5 μl/well of cell lysate into white opaque plates and add 45 μl/well of CSPD Alkaline Phosphatase substrate. • Cover from light and incubate for 45 min. at room temperature on a shaker platform. • Read the plate(s) on Wallac VictorV reader using Luminescence (0.1 s) protocol.
Cells C3H10T1/2 were used for identification of inhibitors of SHh-protein signaling cascade. SHh-protein activates cells C3H10T1/2, that leads to their osteogenic differentiation [1) Kinto N., Iwamoto M., Enomoto-Iwamoto M., Noji S., Ohuchi H., Yoshioka H., Kataoka H., Wada Y., Yuhao G., Takahashi H. E., Yoshiki S., Yamaguchi A. Fibroblasts expressing Sonic hedgehog induce osteoblast differentiation and ectopic bone formation. FEBS Lett. 1997; 404 (2-3): 319-23. 2) Spinella-Jaegle S., Rawadi G., Kawai S., Gallea S., Faucheu C., Mollat P., Courtois B., Bergaud B., Ramez V., Blanchet A. M., Adelmant G., Baron R., Roman-Roman S. Sonic hedgehog increases the commitment of pluripotent mesenchymal cells into the osteoblastic lineage and abolishes adipocytic differentiation. J. Cell Sci. 2001; 114 (Pt 11): 2085-94] and, in particular, to expression enhancement of alkaline phosphatase enzyme.
The cells were cultivated in DMEM medium with 10% embryonal calfish serum in incubator at 37° C., 100% humidity and 5% CO2 content. The cells were placed in 384-well plates and left for a night. […]

Compound: COc1ccc(C(=O)Nc2ccc(-c3cn4cccc(C)c4n3)cc2)c(Br)c1 [Cpd-001]
- IC50: < 0.5 µM

Compound: Cc1cccn2cc(-c3ccc(NC(=O)c4ccc(S(C)(=O)=O)cc4Cl)cc3)nc12 [Cpd-002]
- IC50: < 0.5 µM

Compound: Cc1cccn2cc(-c3ccc(NC(=O)c4ccc(S(C)(=O)=O)cc4Br)cc3)nc12 [Cpd-003]
- IC50: < 0.5 µM

Compound: COc1ccc(C(=O)Nc2ccc(-c3cn4cccc(C)c4n3)cc2)c(Oc2ccncc2)c1 [Cpd-004]
- IC50: 0.5 to 5 µM

Compound: COc1ccc(C(=O)Nc2ccc(-c3cn4cccc(C)c4n3)cc2)c(Cl)c1 [Cpd-005]
- IC50: < 0.5 µM

Compound: Cc1cccn2cc(-c3ccc(NC(=O)c4ccccc4F)cc3)nc12 [Cpd-006]
- IC50: 0.5 to 5 µM

Compound: Cc1cccn2cc(-c3ccc(NC(=O)c4ccc(F)cc4F)cc3)nc12 [Cpd-007]
- IC50: 5 to 50 µM

Compound: CCc1cccn2cc(-c3ccc(NC(=O)c4ccc(F)cc4F)cc3)nc12 [Cpd-008]
- IC50: 0.5 to 5 µM

Compound: Cc1cccn2cc(-c3ccc(NC(=O)c4ccc(Cl)cc4Cl)cc3)nc12 [Cpd-009]
- IC50: 5 to 50 µM

Compound: CCOc1ccc(C(=O)Nc2ccc(-c3cn4cccc(C)c4n3)cc2)c(Cl)c1 [Cpd-010]
- IC50: < 0.5 µM

Compound: COc1ccc(C(=O)Nc2ccc(-c3cn4cccc(C)c4n3)cc2)c(F)c1 [Cpd-011]
- IC50: < 0.5 µM

Compound: Cc1cccn2cc(-c3ccc(NC(=O)c4ccc5c(c4)OCO5)cc3)nc12 [Cpd-012]
- IC50: 0.5 to 5 µM

Compound: COc1ccc(C(=O)Nc2ccc(-c3cn4cccc(C)c4n3)cc2)cc1OC [Cpd-013]
- IC50: < 0.5 µM

Compound: Cc1cccn2cc(-c3ccc(NC(=O)c4ccc(C(C)C)cc4)cc3)nc12 [Cpd-014]
- IC50: 5 to 50 µM

Compound: Cc1cccn2cc(-c3ccc(NC(=O)c4ccc(C(C)(C)C)cc4)cc3)nc12 [Cpd-015]
- IC50: 0.5 to 5 µM

Compound: Cc1cccn2cc(-c3ccc(NC(=O)c4ccc(C(F)(F)F)cc4)cc3)nc12 [Cpd-016]
- IC50: > 50 µM

Compound: Cc1cccn2cc(-c3ccc(NC(=O)c4ccc(-c5ccccc5)cc4)cc3)nc12 [Cpd-017]
- IC50: 5 to 50 µM

Compound: Cc1cccc(C)c1C(=O)Nc1ccc(-c2cn3cccc(C)c3n2)cc1 [Cpd-018]
- IC50: < 0.5 µM

Compound: CCOc1ccc(C(=O)Nc2ccc(-c3cn4cccc(C)c4n3)cc2)c(Br)c1 [Cpd-019]
- IC50: 0.5 to 5 µM

Compound: Cc1cc(S(C)(=O)=O)ccc1C(=O)Nc1ccc(-c2cn3cccc(C)c3n2)cc1 [Cpd-020]
- IC50: < 0.5 µM
